Where no end group is shown, it is not given here.
Assays:
myc-Rho-kinase [1] = molecular target: T1, myc-Rho-kinase (Bos taurus, UniProt Q28021); assay: Rho-kinase kinase assay with lysates of transfected 293T cells; format: cell-based
Protocol: Cells were lysed with lysis buffer (50 mM Tris-HCl (pH 7.5), 150 mM NaCl, 10% glycerol, 1% Nonidet-P40 and protease inhibitor cocktail). The kinase assay was carried out using the lysates.

N1E-115 cells [2] = assay: Morphological analysis of N1E-115 cells; format: cell-based; conditions: for cell population with long neurites / neurite formation: transfection, 48 h, Y-27632 10 μM for 30 minutes
Protocol: N1E-115 cells were transfected with GFP, GFP-full-p21 or GFP-ΔNLS-p21, and cultured in serum-starved condition for 5 hours. Then, the medium was replaced with DMEM containing 10% fetal bovine serum. The cells were fixed at 48 hours after transfection. The morphology of the cells was categorized into 3 groups; neurite positive cells, round cells and the other cells. The cells with longer neurites than their soma were defined as neurite positive cells. The other cells had various features including microspikes, ruffles and a flattened appearance.

cerebellar neurons = assay: Neurite outgrowth assay, post-natal cerebellar neurons; format: cell-based, mouse; conditions: cells transfected with myc-tagged Rho GDI
[3] = molecular target: T2, association of p75 with Rho GDI (Homo sapiens, UniProt P08138); assay: Co-precipitation of p75 with recombinant GST-Rho GDI or GST-RhoA; format: binding; conditions: for direct binding of recombinant protein to p75 precipitated from transfected 293T cells: RhoA in the GDP-bound, GTP-bound or nucleotide-depleted state
T2 construct: host or cells: 293T (p75)
T2 sequence (P08138 29-427): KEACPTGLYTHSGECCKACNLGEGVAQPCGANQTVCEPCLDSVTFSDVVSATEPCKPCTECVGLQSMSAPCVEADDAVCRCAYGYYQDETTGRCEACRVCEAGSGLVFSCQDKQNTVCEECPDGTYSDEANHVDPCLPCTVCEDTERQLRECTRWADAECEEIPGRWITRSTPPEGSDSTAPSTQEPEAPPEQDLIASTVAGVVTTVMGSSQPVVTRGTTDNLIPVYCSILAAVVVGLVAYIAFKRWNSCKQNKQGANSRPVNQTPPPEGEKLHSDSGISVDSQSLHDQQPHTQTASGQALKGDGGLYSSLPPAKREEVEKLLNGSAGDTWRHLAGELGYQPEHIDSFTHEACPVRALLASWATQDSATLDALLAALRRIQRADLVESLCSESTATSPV

p75 = molecular target: T3, p75 (Mus musculus, UniProt Q9Z0W1); assay: Co-precipitation of p75 with GST-Pep5; format: binding; conditions: lysates from post-natal cerebellum
T3 construct: was incubated with lysates prepared from post-natal cerebellum that abundantly express p75; from tissue; host or cells: post-natal cerebellum lysate
T3 sequence (Q9Z0W1 32-427): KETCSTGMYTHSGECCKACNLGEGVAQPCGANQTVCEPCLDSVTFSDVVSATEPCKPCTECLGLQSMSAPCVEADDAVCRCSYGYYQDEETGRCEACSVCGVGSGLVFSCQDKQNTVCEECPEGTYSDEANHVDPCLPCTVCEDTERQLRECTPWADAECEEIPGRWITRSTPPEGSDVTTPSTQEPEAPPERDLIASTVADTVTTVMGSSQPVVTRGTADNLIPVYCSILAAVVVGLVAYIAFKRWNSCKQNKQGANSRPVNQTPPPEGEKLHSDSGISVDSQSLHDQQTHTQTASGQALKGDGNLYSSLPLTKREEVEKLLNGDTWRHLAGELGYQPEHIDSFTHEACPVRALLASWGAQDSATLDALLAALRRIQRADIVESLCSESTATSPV

N1E-115 cells [4] = assay: Growth, cyclin D3 and pRb in N1E-115 cells; format: cell-based; conditions: for phosphorylation state of pRb / protein level of cyclin D3: Western blot; for growth of N1E-115 cells: after transfection
Protocol: (§1) NIH3T3 cells, N1E-115 cells and 293T cells were maintained in DMEM containing 10% fetal bovine serum. Lipofectamine 2000 (Invitrogen) was used for transfection. For the stress fiber formation assay, NIH3T3 cells were cultured in serum-free medium for 16 hours after transfection. Stress fiber formation was evoked by incubating the cells with 10% serum for 10 minutes. Hippocampal neurons were prepared from […], as previously described (Neumann, H. et al., Science. 269:549-552, 1995). Briefly, hippocampi were dissected and the meninges removed. The trimmed tissue was dissociated by trituration. The dissociated cells were plated on dishes pre-coated with poly-L-lysine (Sigma), and cultured in DMEM containing 10% fetal bovine serum for 24 hours. Then, the medium was replaced with DMEM with B27 supplement (Invitrogen), and the cells were transfected with GFP or GFP-ΔNLS-p21. Neuronal morphology was estimated at 24 hours after the transfection.

NIH3T3 cells = assay: Stress fiber formation assay; format: cell-based; conditions: serum-starved 16 hours, 10% serum 10 minutes
Protocol: as §1

myc-Rho-kinase [5] = molecular target: T1, myc-Rho-kinase; assay: Co-immunoprecipitation of p21 constructs and Rho-kinase in 293T cells; format: cell-based; conditions: 293T cells cotransfected
Protocol: 293T cells were transfected with myc-Rho-kinase in combination with GFP-full-p21 or GFP-ΔNLS-p21. At 48 hours after transfection, the cells were lysed with 1 ml of lysis buffer (50 mM Tris-HCl (pH 7.5), 150 mM NaCl, 10% glycerol, 0.5% Nonidet-P40 including protease inhibitor cocktail tablets (Roche). The cell lysates were centrifuged at 13,000×g for 20 minutes, and the supernatant was collected. Immunoprecipitations were performed for 2 hours at 4° C. using an anti-p21 mouse monoclonal antibody (Santa Cruz Biotechnology) and 0.75 ml of the supernatant. The immunocomplexes were collected with protein G-Sepharose (Amersham Pharmacia Biotech) slurry (50% v/v), washed 4 times with lysis buffer, and subjected to SDS-PAGE. They were transferred to the polyvinylidene difluoride membranes and probed with the anti-myc rabbit polyclonal antibody (Santa Cruz Biotechnology). Interaction of endogenous proteins in N1E-115 cells was assessed in the same way using anti Rho-kinase antibody.

hippocampal neurons = assay: Neurite outgrowth and branching of hippocampal neurons; format: cell-based; conditions: rat E18, 24 hours after transfection
Protocol: as §1
Cultures of the hippocampal neurons from rat E18 embryos were used. […] Twenty-four hours after transfection, the cells were fixed and immunolabeled with β-tubulin III. The total neurite length per neuron, the axonal length, defined as the length of the longest neurite per neuron, the number of primary processes originating from the neuronal somata, and the number of branch points per neuron were determined (Neumann, H. et al., J. Neurosci. 22:854-862, 2002).

[6] = molecular target: T4, recombinant human p75-Fc chimera (Homo sapiens, UniProt P08138); assay: Co-precipitation of recombinant p75 and gangliosides; format: binding; conditions: precipitation with protein A sepharose, Western blot
T4 construct: Recombinant p75 extracellular domain fused to Fc purified from Sf21 cells; purchased Genzyme-Techne; host or cells: Sf21
T4 sequence (P08138 29-250 limits assumed): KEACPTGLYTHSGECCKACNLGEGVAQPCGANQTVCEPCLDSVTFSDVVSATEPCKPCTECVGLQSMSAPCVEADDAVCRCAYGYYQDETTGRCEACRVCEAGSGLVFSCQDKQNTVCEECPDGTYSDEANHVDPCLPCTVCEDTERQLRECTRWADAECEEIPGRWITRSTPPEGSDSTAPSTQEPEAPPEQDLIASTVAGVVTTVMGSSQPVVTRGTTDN
Protocol: Recombinant human p75-Fc chimera (1 μg; Genzyme-Techne) and 1 μg of purified ganglioside GT1b (>98% purity, Seikagaku Co.) were incubated in 200 μl 0.025% Tween20/PBS for 2 h, and p75 was precipitated using proteinA sepharose (Amersham Pharmacia Biotech). The resultant precipitates were electrophoretically transferred to polyvinylidene difluoride membranes after SDS-PAGE with 7% gels and were immunoblotted with anti GT1b antibody (IgM, Seikagaku Co.) or anti p75 antibody.

RhoA = assay: Affinity-precipitation of GTP-RhoA in cerebellar neurons; format: cell-based, mouse; conditions: MAG-Fc 25 μg/ml, Nogo peptide 4 μM
Protocol: 293 cells were transfected with pcDNA3 vectors containing wild type RhoA whose NH2-terminus is tagged with HA (Yamashita, T. et al., Neuron. 24:585-593, 1999) and/or full-length human p75 by lipofection using Lipofectamine 2000 (Gibco BRL). Cerebellar neurons from P9 mice were isolated as described previously (Cai et al, Neuron, 22:89-101, 1999). Cells were lysed in 50 mM Tris (pH 7.5), 1% Triton X-100, 0.5% sodium deoxycholate, 0.1% SDS, 500 mM NaCl, 10 mM MgCl2, with leupeptin and aprotinin, each at 10 μg/ml. Cell lysates were clarified by centrifugation at 13,000×g at 4° C. for 10 min, and the supernatants were incubated with the 20 μg of GST-Rho binding domain of Rhotekin beads (Upstate Biotech.) at 4° C. for 45 min. The beads were washed 4 times with washing buffer (50 mM Tris (pH 7.5) containing 1% Triton X-100, 150 mM NaCl, 10 mM MgCl2, 10 μg/ml each of leupeptin and aprotinin). Bound Rho proteins were detected by Western blotting using a monoclonal antibody against RhoA (Santa Cruz Biotechnology).
Amino-terminally FLAG-tagged human p75 or the deletion mutants of p75 ICD were cloned into pcDNA3.1 expression plasmid, and were transfected with 293T cells. […] Bound Rho proteins were detected by Western blotting using a monoclonal antibody against RhoA (Santa Cruz Biotechnology).

[7] = molecular target: T5, interaction of p75 with Rho GDI (Homo sapiens, UniProt P08138); assay: Co-immunoprecipitation of p75 with Rho GDI or RhoA in transfected N1E-115 cells; format: cell-based; conditions: N1E-115 cells transfected with FLAG-tagged p75; Nogo peptide 4 μM, MAG-Fc 25 μg/ml, NGF 100 ng/ml
T5 construct: expressed in transfected cells; host or cells: N1E-115
T5 sequence (P08138 29-427): T2 sequence (P08138 29-427)

T1 sequence (Q28021 whole entry): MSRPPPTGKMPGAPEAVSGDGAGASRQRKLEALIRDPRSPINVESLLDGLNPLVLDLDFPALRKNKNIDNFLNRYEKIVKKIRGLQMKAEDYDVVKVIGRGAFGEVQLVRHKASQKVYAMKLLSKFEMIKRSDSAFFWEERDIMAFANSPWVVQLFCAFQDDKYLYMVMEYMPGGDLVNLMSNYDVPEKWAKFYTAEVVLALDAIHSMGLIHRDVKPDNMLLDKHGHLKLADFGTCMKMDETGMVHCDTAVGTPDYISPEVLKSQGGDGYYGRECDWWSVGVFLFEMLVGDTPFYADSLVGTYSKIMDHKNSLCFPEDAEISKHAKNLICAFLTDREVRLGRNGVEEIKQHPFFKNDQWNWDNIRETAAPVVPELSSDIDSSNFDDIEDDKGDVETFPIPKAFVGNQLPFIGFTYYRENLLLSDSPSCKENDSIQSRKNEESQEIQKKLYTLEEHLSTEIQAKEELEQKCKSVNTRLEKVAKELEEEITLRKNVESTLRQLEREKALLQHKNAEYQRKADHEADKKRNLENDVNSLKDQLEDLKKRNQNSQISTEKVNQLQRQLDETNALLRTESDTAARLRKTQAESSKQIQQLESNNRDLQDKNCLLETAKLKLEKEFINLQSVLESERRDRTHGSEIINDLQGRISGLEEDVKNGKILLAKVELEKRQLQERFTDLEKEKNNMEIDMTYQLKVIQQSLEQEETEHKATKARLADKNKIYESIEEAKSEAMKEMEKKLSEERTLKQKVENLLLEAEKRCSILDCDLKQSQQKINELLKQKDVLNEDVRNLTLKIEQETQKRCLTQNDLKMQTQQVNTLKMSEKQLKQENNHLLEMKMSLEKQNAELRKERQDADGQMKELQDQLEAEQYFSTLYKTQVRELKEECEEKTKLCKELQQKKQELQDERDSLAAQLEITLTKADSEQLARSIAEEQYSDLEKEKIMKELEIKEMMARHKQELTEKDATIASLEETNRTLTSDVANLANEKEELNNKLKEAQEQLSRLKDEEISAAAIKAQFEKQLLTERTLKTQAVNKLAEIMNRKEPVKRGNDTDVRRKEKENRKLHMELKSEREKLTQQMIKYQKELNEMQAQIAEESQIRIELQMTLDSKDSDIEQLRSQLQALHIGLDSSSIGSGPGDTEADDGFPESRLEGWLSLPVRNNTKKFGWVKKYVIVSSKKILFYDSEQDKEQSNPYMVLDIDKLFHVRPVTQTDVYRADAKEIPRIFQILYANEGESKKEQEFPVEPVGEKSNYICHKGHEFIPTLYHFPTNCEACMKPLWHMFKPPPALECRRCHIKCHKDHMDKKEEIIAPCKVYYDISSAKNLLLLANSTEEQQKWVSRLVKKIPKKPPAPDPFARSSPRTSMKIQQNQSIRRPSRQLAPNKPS

C[C@@H](N)[C@H]1CC[C@H](C(=O)Nc2ccncc2)CC1 [Y-27632, reference compound]
inhibition at 10 µM (myc-Rho-kinase [1]; HEK-293T, Y-27632 10 μM for 30 minutes, read-out: (compared to the original) inhibition of Rho-kinase activity): 51.9% | cell population with long neurites / neurite formation (N1E-115 cells [2]): induced significant neurite formation

Rho GDI: Rho GDP dissociation inhibitor; recombinant GST-Rho GDI or myc-tagged Rho GDI over-expressed in neurons
inhibitory effects of MAG and the Nogo peptide on neurite outgrowth on over-expression of Rho GDI (cerebellar neurons): abolished these inhibitory effects | direct binding of recombinant protein to p75 precipitated from transfected 293T cells [3]: bound to p75

GST-Pep5: Glutathione S-transferase-fusion protein containing Pep5 (CFFRGGFFNHNPRYC; cysteine pairing not given here; also: GST fusion protein)
co-precipitation of p75 with GST-Pep5 (p75): presence of a protein corresponding to p75

ΔNLS-p21: GFP fused p21 with loss of nuclear localization signal (aa 1-140) expressed from pEGFP-ΔNLS-p21
phosphorylation state of pRb (N1E-115 cells [4]): hyperphosphorylated pRb remained predominant | protein level of cyclin D3 (N1E-115 cells [4]): no change in the expression | growth of N1E-115 cells (N1E-115 cells [4]): proliferated until 48 hours after transfection | cells that extended long neurites (N1E-115 cells [2]; 48 hours after transfection): more than 45% | increase of cells with long neurites compared to the control (N1E-115 cells [2]; 48 hours after transfection): 3.1 -fold | formation of actin stress fibers after the addition of serum (NIH3T3 cells): had little stress fiber formation | co-immunoprecipitation of myc-tagged Rho-kinase with anti-p21 antibody (myc-Rho-kinase [5]): efficiently precipitated myc-tagged Rho-kinase | number of primary processes (hippocampal neurons): no change | number of branch points per neuron (hippocampal neurons; control 1.3): 2.6 (±0.3 SEM) | axonal length (longest neurite per neuron) (hippocampal neurons; control 66.3): 162.9 μm | total neurite length per neuron (hippocampal neurons; control 135.9): 307.2 μm

GM1
association of ganglioside with recombinant p75 extracellular domain fused to Fc [6]: no interaction

full-p21: GFP fused full length p21 (aa 1-164) expressed from pEGFP-full-p21
protein level of cyclin D3 (N1E-115 cells [4]): strongly increased | growth of N1E-115 cells (N1E-115 cells [4]): stopped proliferation | Rho-kinase activity in transfected cells (myc-Rho-kinase [1]): had no significant effect | cell rounding (N1E-115 cells [2]; 48 hours after transfection): decreased cell rounding | cell population with long neurites / neurite formation (N1E-115 cells [2]): no increase in the cell population that had long neurites | formation of actin stress fibers after the addition of serum (NIH3T3 cells): Extensive actin stress fibers were observed | co-immunoprecipitation of myc-tagged Rho-kinase with anti-p21 antibody (myc-Rho-kinase [5]): only a faint signal could be detected

C[S+](C)[O-] [DMSO, reference compound]
phosphorylation state of pRb (N1E-115 cells [4]): hyperphosphorylated pRb became undetectable | protein level of cyclin D3 (N1E-115 cells [4]): strongly increased

GT1b
association of ganglioside with recombinant p75 extracellular domain fused to Fc [6]: binds to p75 in a manner that is SDS-resistant

CFFRGGFFNHNPRYC [Pep5]
association of p75 with Rho GDI ([3]; 1 μM GST-Rho GDI, Pep5 at the indicated concentrations): inhibited the association of p75 with Rho GDI dose dependently

NGF: Nerve growth factor [reference compound]
RhoA activity in cerebellar granule neurons from wild type mice (P9) (RhoA): rapidly inhibits RhoA activity | interaction of p75 with Rho GDI and RhoA [7]: abolished the interaction of p75 with Rho GDI as well as RhoA

GD1a
association of ganglioside with recombinant p75 extracellular domain fused to Fc [6]: did not see any interaction

RhoA: bacterially produced RhoA (GST-RhoA)
direct binding of recombinant protein to p75 precipitated from transfected 293T cells [3]: no interaction between them in any nucleotide state

— patent publication US20040191240A1, “Composition and method for nerve regeneration” (priority 2003, published 2004)
